The values that follow come from patent US20240124538A1, “Modulation of Wnt5a to Treat Glaucoma” (The Regents of the University of California, priority 2017, published 2024).

The target of data set [1] is T1, Wnt5a (Mus musculus, UniProt P22725).
T1 construct: from tissue; host or cells: eye of living mice (Schlemm's canal / anterior chamber)
T1 sequence (P22725 62-380): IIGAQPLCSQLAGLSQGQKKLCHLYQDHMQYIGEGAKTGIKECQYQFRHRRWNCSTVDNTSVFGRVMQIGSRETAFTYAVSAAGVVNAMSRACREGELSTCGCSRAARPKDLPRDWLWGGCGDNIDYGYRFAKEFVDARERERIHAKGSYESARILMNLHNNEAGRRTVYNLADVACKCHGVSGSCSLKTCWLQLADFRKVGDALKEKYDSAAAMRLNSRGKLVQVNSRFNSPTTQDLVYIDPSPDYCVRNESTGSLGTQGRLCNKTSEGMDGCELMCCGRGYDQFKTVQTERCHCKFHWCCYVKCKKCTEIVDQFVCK
Briefly: Mouse model of pathogenic IOP, inhibitor delivered by eye drops. The data set is classed as in vivo.
Description: In one protocol subconjuctival injection of siRNA is performed as described by Yuen et al. (2014, Invest Ophthalmol Vis Sci. 2014; 55:3320-3327). Mice are randomly selected to receive subconjunctival injection of 5 uL (0.2 1g/uL) siRNA or control twice a week for 2 weeks. In a second protocol intracameral injection of siRNA is performed as described by Tam et al. (2017, Scientific Reports 7, 40717). Mice are anaesthetized by intra-peritoneal injection, and pupils are dilated. A pulled blunt-ended micro-glass needle is first used to puncture the cornea to withdraw aqueous humour Immediately after puncture, a pulled blunt-ended micro-glass needle attached to a 10 μl syringe is inserted through the puncture, and 1.5 μl of PBS containing 1 μg siRNA is administered into the anterior chamber. Contralateral eyes receive an identical injection of 1.5 μl containing the same concentration of scrambled siRNA.

The target of data set [2] is T2, Wnt5a (Oryctolagus cuniculus, UniProt Q27Q52).
T2 construct: New Zealand White rabbits receive a topical administration; from tissue; host or cells: eye of living New Zealand White rabbits
T2 sequence (Q27Q52 62-380): T1 sequence (P22725 62-380)
The data set can be described thus: Rabbit model of pathogenic IOP, inhibitor delivered by eye drops. The data set is classed as in vivo.
Excerpt: To assess the effect of siRNA delivered by eye drops on IOP, we developed an additional protocol based on the methods of Martinez et al. (Mol Ther. 2014 January; 22(1):81-91), wherein New Zealand White rabbits receive a topical administration of either 20 nmol/day of siRNA or phosphate-buffered saline (PBS) over a period of 4 consecutive days.

The conditions of data set [3]: Shinonaga et al. 2009; cited from earlier work.
The test system of the next data set is WNT-5A. The following applies: Shinonaga et al. 2009; cited from earlier work.

For the substance 6,7-dihydro-10alpha-hydroxy radicicol, the “therapy of pathogenic IOP” value at Wnt5a [1] and on Wnt5a [2] was “effective therapies for pathogenic IOP” each time. The toxicity result in data set [3] is recorded as “relatively low toxicity”. Also, the WNT-5A expression inhibition entry with WNT-5A is “potent WNT-5A expression inhibitor”.
